Values quoted from earlier work in patent US20180344745A1, “TREATMENT OF DEVELOPMENTAL DISORDERS WITH IMIDAZOLONE DERIVATIVES” (Ovid Therapeutics Inc., priority 2017, published 2018).

Details: smokers versus non-smokers

In the case of O=C1N=C(N2CCOCC2)CN1c1ccc(Cl)cc1 [imepitoin, 1-(4-chlorophenyl)-4-morpholino-imidazolin-2-one], the elimination is given as “more rapidly eliminated in smokers than in non-smokers”.
